The values below come from publication PMC12735921, “Evaluation of Antiproliferative Activity and Molecular Modeling Studies of Some Novel Benzimidazolone-Bridged Hybrid Compounds” (Pharmaceuticals, 2025).

Assay type in all cases: cell-based, human
In assay [1] the test system is A549 cells. Nature of the assay: Total oxidative status (TOS), A549. The following applies: A549, IC50 concentration of compound, 48 h; H2O2 250 µM positive control; mean ± SD, n = 3. As to the method:
(§1) TOS were evaluated using a commercially available kit (Rel Assay Diagnostics®, Gaziantep, Turkey) according to the manufacturer’s instructions. […] The TOS assay quantifies oxidizing agents based on their ability to convert an iron (II) ion chelator complex to iron (III) ions. The results were calibrated against hydrogen peroxide (H2O2, 250 µM) as a positive control for 48 h and expressed as µmol H2O2 equivalents per liter. The analysis was performed in three independent biological replicates (n = 3).

The test system of assay [2] is MCF-7 cells. Put plainly: Cell cycle analysis (PI staining, flow cytometry), MCF-7. The conditions noted are these: MCF-7, IC50 concentration, 48 h, mean ± SEM, n = 3. The method, then: Cell cycle distribution was assessed by propidium iodide (PI) staining and flow cytometry. HeLa, MCF-7, and A549 cells were seeded in 6-well plates at a density of 1 × 10^5 cells per well and allowed to attach overnight. […] Following exposure, both adherent and floating cells were collected, washed twice with cold phosphate-buffered saline (PBS, pH 7.4), and fixed overnight in 70% cold ethanol at 4 °C. After fixation, the cells were centrifuged and resuspended in 500 µL of PI/RNase staining solution containing 50 µg/mL PI and 100 µg/mL RNase A (Sigma-Aldrich®, St. Louis, MO, USA), followed by incubation in the dark for 30 min at 37 °C. The stained samples were analyzed using a Muse™ Cell Analyzer (Merck, Millipore, Germany) equipped with a 488 nm excitation laser and a 617 nm emission filter. A minimum of 10,000 events per sample were acquired after exclusion of debris and doublets via FSC-A vs. FSC-H gating. The DNA content histograms were generated automatically, and cell populations were expressed as percentages of G0/G1, S, and G2/M phases using the Muse™ Cell Cycle Analysis Software 1.5.0.0. All assays were conducted in triplicate biological repeats (n = 3), and results were reported as mean ± SEM.

The test system of assay [3] is MCF-7 cells. Nature of the assay: Total oxidative status (TOS), MCF-7. The conditions noted are these: MCF-7, IC50 concentration of compound, 48 h; H2O2 250 µM positive control; mean ± SD, n = 3. As to the method: as §1
Assay [4] has as its system HeLa cells. Put plainly: MTT cell viability assay, HeLa. The procedure, abridged:
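Cells exposed to compounds at 0.5–200 µM for 48 h in DMEM with 10% FBS at 37 °C, 5% CO2; formazan dissolved in DMSO and read at 570 nm. Cytotoxicity relative to untreated control; IC50 from four-parameter logistic fit, mean of three independent measurements, triplicate samples.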

In a further assay the test system is HEK 293 cells. Nature of the assay: MTT cell viability assay, non-cancerous HEK 293. The following applies: Homo sapiens, HEK293, 48 h, mean ± SD, n = 3. The procedure, abridged: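 Cells grown in DMEM/10% FBS were seeded at 1 × 10^5 cells/mL and exposed to compounds at 0.5–200 µM for 48 h. Formazan was dissolved in DMSO and read at 570 nm, with cytotoxicity expressed relative to untreated control (0%). IC50 came from a four-parameter logistic fit, averaged over three independent runs.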

For assay [5], the system named is A549 cells. Nature of the assay: LDH leakage assay, A549. The conditions noted are these: A549, IC50 concentration of compound, 48 h; H2O2 positive control; mean ± SD, n = 3. As to the method:
One hundred microliters of culture medium was transferred to a new 96-well plate. One hundred microliters of LDH reaction solution was added to each well, and absorbance was measured at 490 nm using an ELISA plate reader (BMG Labtech, Ortenberg, Germany) after 30 min.

Assay [6] concerns HeLa cells. Put plainly: Intracellular GSH/GSSG ratio, HeLa. The following applies: IC50 concentration of compound, 48 h, H2O2 positive control, mean ± SD, n = 3. The method, then:
Intracellular reduced (GSH) and oxidized (GSSG) glutathione levels were measured using the GSH/GSSG Ratio Detection Assay Kit (Cayman Chemical, Ann Arbor, MI, USA, Cat. No: 703002) according to the manufacturer’s protocol. […] After treatment, cells were washed with cold PBS and lysed with MES buffer provided in the kit.
To prevent oxidation of GSH to GSSG during processing, samples were deproteinized using the supplied metaphosphoric acid solution and neutralized accordingly. Total glutathione and GSSG levels were measured separately by adding the appropriate buffers and reagents to the wells of a 96-well plate, followed by the addition of DTNB recycling reagent and glutathione reductase. Absorbance was read at 405 nm using a microplate reader (BMG Labtech, Germany). The amount of GSH was calculated by subtracting 2 × GSSG from the total glutathione, and the GSH/GSSG ratio was used to assess intracellular redox status.

Several values for one entry are separate records, joined by “and”; a condition that tells them apart may be missing. Equal entries are not always repeated. Marks after values point to notes of the source that are not given here.

`O=C(O)Cn1c(=O)n(CC(=O)O)c2cc(Cl)c(Cl)cc21` [Compound 6, 2,2′-(5,6-Dichloro-2-oxo-1H-benzo[d]imidazole-1,3(2H)-diyl)diacetic Acid]: in the assay with A549 cells [1], the TOS is given as 7.3 ± 0.5 ^a,b µmol H2O2 eq/L. In the assay on MCF-7 cells [2], the “cells in G0/G1 phase” value is 66.1 ± 1.9%, the “cells in G2/M phase” value was found to be 14.9 ± 1.3% and the “cells in S phase” value is 19.0 ± 1.4%. Further, the TOS in the assay on MCF-7 cells [3] was 6.9 ± 0.5 µmol H2O2 eq/L and 6.9 ± 0.5 ^a,b µmol H2O2 eq/L. Moreover, the concentration for half-maximal inhibition (IC50) in the assay with HeLa cells [4] (Homo sapiens, HeLa, MTT, 48 h, mean ± SD, n = 3) stood at 31.2 ± 1.8 µM. Also, the “HeLa Selectivity Index (SI)” value in the assay with HeLa cells [4] (SI = IC50 (HEK 293)/IC50 (HeLa)) is given as 2. Also, the IC50 in the assay on HEK 293 cells is 62.7 ± 3.62 µM. Besides, the LDH in the assay on A549 cells [5] was 24.5 ± 2.0 µU/mL and 24.5 ± 2.0 ^a,b µU/mL. Besides, in the assay with HeLa cells [6], the GSH/GSSG was 10.6 ± 1.1.
